≈ marks a conversion by molar mass, not a printed value.

The first test deals with T1, HIV-1 protease (Human immunodeficiency virus type 1 group M subtype B, UniProt P04585).
T1 construct: Purified HIV-1 protease was obtained as described above; made in house; host or cells: E. coli K12 L507/pHP10D (NRRL B-18560)
The test is described as follows: biochemical. It counts as biochemical. Particulars: read-out: Fluorescence Assay IC45. How it is done: C. Preparation of Protease Fraction
A culture of E. coli K12 L507/pHP10D was grown to mid-log phase at 32° C. in LB media containing 12.5 μg/ml tetracycline. The cultivation temperature was quickly elevated to 40° C. to induce gene expression, and the cells were allowed to grow for 2.5 hours at this temperature before the culture was quickly chilled on ice. The cells were centrifuged and the cell pellet was resuspended in 20 mL 50 mmol MES buffer (pH 6.0) containing 1 mmol EDTA, 1 mmol DTT, 1 mmol PMSF and 10% glycerol ("Buffer A"). Cells were lysed by sonication using a Fischer Model 300 Dismembrator and a microtip probe. Following centrifugation at 27,000×g, the supernatant was diluted to a total volume of 60 mL with Buffer A and loaded onto a 2.0×19 cm QAE-Sepharose column (1 mL/min, 4° C.), that had been equilibrated in Buffer A. The column was washed isocratically for 180 min and then eluted with a gradient eluent of 0-1.0M sodium chloride in Buffer A over 120 min. Enzymatic activity was measured by HPLC using the synthetic peptide SQNYPIV as described in Margolin et al., Biochem. Biophys. Res. Commun., 167, 554-560 (1990); the production of the p1 peptide (SQNY) was measured.
The active fractions were combined, made 1.2M in ammonium sulfate, and applied to a 2.0×18 cm hexyl agarose column that had been equilibrated in Buffer A containing 1.2M ammonium sulfate. The sample was loaded at a flow rate of 1 mL/min at 4° C., washed with the equilibration buffer for 240 min (1 mL/min) and then eluted using a reverse linear gradient of 1.2-0M ammonium sulfate in Buffer A for 120 min at the same flow rate. The column was then washed isocratically in Buffer A for 120 min.
The active fractions were combined, concentrated to 10 mL using an Amicon stirred cell with a YM-10 membrane and then applied to a MonoS cation exchange column (1.0×10 cm) that had been equilibrated in Buffer A. The sample was loaded at a flow rate of 1 mL/min at 25° C. After washing isocratically for 30 min, the protease was eluted using a linear gradient of 0-0.45M sodium chloride in Buffer A over 40 min. The column was washed isocratically in Buffer A containing 0.45M sodium chloride for 30 min.
The active fractions were combined and concentrated to 200 μL using an Amicon stirred cell and a YM-10 membrane and then the protease was applied to a Superose 6 size exclusion column equilibrated in Buffer A containing 0.1M sodium chloride.
The purified peptide was labeled with a fluorescent marker at the C-terminal end for use in the Pandex assay. N^α -Biotin-[…]OH SEQ ID NO:3. (1.206 g, 0.936 mmol) was dissolved in 100 mL of 0.1M sodium borate, pH 9.5. Then, a solution of 3 g (7.7 mmol) of fluorescein isothiocyanate in 15 mL dimethyl sulfoxide was added to the reaction mixture in 10 equal portions over two hours. The resulting mixture was allowed to react for one hour after the final addition. The solution was adjusted to pH 3 using 5N hydrochloric acid, resulting in the formation of a precipitate which was removed by centrifugation.
E. Fluorescence HIV-1 Protease Inhibitor Assay
The following buffers and solutions are used in the Fluorescence HIV-1 Protease Inhibitor Assay:
MES-ALB Buffer: 0.05M 4-morpholineethane
Avidin Coated 0.1% solution of Fluoricon
Beads Solution: Avidin Assay Particles
(Avidin conjugated to solid
polystyrene beads, 0.6-0.8
microns in diameter in TBSA
27 IU/mL of purified HIV-1
protease in MES-ALB buffer
(1 IU equals the amount of
enzyme required to hydrolyze
1 μmole of substrate per
To each well of a round bottom, 96-well plate is added 20 μL of the Enzyme Solution followed by 10 μL of the compound to be evaluated in a 20% aqueous dimethylsulfoxide solution. Purified HIV-1 protease was obtained as described above.
With `CC(=O)N[C@H](Cc1ccccc1)C(=O)N[C@@H](Cc1ccccc1)[C@H](O)Cc1ccccc1C(=O)NC(C)(C)C` [Example 26, [2R-(2R*,3S*,6R*)]-N-t-Butyl-2-[2-hydroxy-3-phenylmethyl-4-aza-5-oxo-6-N-(ethanoyl)amino-7-phenyl]heptyl benzamide], the IC45 turned out to be 1 µg/mL (≈ 1.89 µM).

Still in this test, the particulars now being: read-out: Fluorescence Assay IC50 (converted).
A word on the IC50: it is the point on the concentration scale where inhibition reaches its midpoint. On to `CC(=O)N[C@H](CS(=O)(=O)c1ccccc1)C(=O)N[C@@H](Cc1ccccc1)[C@H](O)Cc1ccccc1C(=O)NC(C)(C)C` [Example 20C, [2R-(2R*,3S*,6S*)]-N-t-Butyl-2-[2-hydroxy-3-phenylmethyl-4-aza-5-oxo-6-N(ethanoyl)amino-7-phenylsulfonyl]heptyl benzamide], for which the IC50 is 4.88 nM. For the compound `CC(C)(C)NC(=O)c1ccccc1C[C@@H](O)[C@H](Cc1ccccc1)NC(=O)[C@@H](CS(=O)(=O)c1ccc2ccccc2n1)NS(C)(=O)=O` [Example 23D, [2R-(2R*,3S*,6S*)]-N-t-Butyl-2-[2-hydroxy-3-phenylmethyl-4-aza-5-oxo-6-N(methylsulfonyl)amino-7-quinolin-2-ylsulfonyl]heptyl benzamide], the half-inhibitory concentration (IC50) is 1.18 nM.

`Cn1nnnc1[S+]([O-])C[C@@H](NS(C)(=O)=O)C(=O)N[C@@H](Cc1ccccc1)[C@H](O)Cc1ccccc1C(=O)NC(C)(C)C` (stereo partly drawn) [Example 39D, [2R-(2R*,3S*,6S*)]-N-t-Butyl-2-[2-hydroxy-3-phenylmethyl-4-aza-5-oxo-6-N(methylsulfonyl)amino-7-N-(methyl)tetrazolylsulfinyl)]heptyl benzamide]: the concentration for half-maximal inhibition (IC50) is 1.4 nM. Same read-out and setting: as for `CC(=O)N[C@H](CC(=O)NCc1ccccc1)C(=O)N[C@@H](Cc1ccccc1)[C@H](O)Cc1ccccc1C(=O)NC(C)(C)C` [Example 4, [2R-(2R*, 3S*, 6R *]-N-t-butyl-2-[2-hydroxy-3-phenylmethyl-4-aza-5-oxo-6-N (ethanoyl)amino-8-oxo-9-aza-10-phenyl]decylbenzamide], the figure is 341 nM; as for `CC(C)(C)NC(=O)c1ccccc1C[C@@H](O)[C@H](Cc1ccccc1)NC(=O)[C@H](CC(N)=O)NS(=O)(=O)c1cccc2ccccc12` [Example 33, [2R-(2R*,3S*,6S*)]-N-t-Butyl-2-[2-hydroxy-3-phenylmethyl-4-aza-5-oxo-6-N (naphth-1-ylsulfonyl)amino-7-carbamoyl]heptyl benzamide], 68.2 nM. Still for that read-out and setting: as for `Cn1nnnc1SC[C@@H](NS(C)(=O)=O)C(=O)N[C@@H](Cc1ccccc1)[C@H](O)Cc1ccccc1C(=O)NC(C)(C)C` [Example 39C, [2R-(2R*,3S*,6S*)]-N-t-Butyl-2-[2-hydroxy-3-phenylmethyl-4-aza-5-oxo-6-N(methylsulfonyl)amino-7-N-(methyl)tetrazolylthio)]heptyl benzamide], the figure is 14.6 nM; as for `CC(=O)N[C@H](CSc1ccc2ccccc2n1)C(=O)N[C@@H](Cc1ccccc1)[C@H](O)Cc1ccccc1C(=O)NC(C)(C)C` [Example 24A, [2R-(2R*,3S*,6S*)]-N-t-Butyl-2-[2-hydroxy-3-phenylmethyl-4-aza-5-oxo-6-N(ethanoyl)amino-7-quinolin-2-ylthio]heptyl benzamide], 3.75 nM.

On to `CC(C)(C)NC(=O)c1ccccc1C[C@@H](O)[C@H](Cc1ccccc1)NC(=O)[C@@H](CC(=O)Nc1ccc2ccccc2n1)NS(C)(=O)=O` [Example 9, [2R-(2R*, 3S*, 6R*)]-N-t-butyl-2-[2-hydroxy-3-phenylmethyl-4-aza-5-oxo-6-N-(methylsulphonyl)amino-8-oxo-8-N (quinolin-2-yl)amino]octyl benzamide], for which the IC50 is 13.6 nM.

For `CC(C)(C)NC(=O)c1ccccc1C[C@@H](O)[C@H](Cc1ccccc1)NC(=O)[C@@H](CC(=O)NCc1ccc2ccccc2n1)NS(C)(=O)=O` [Example 11, [2R-(2R*, 3S*, 6R)]-N-t-butyl-2-[2-hydroxy-3-phenylmethyl-4-aza-5-oxo-6-N(methylsulfonyl)amino-8-oxo-9-aza-10-quinolin-2-yl]decyl benzamide], the IC50 is 2.52 nM. On the same count and under the same terms, as for `CC(=O)N[C@H](COCc1ccccc1)C(=O)N[C@@H](Cc1ccccc1)[C@H](O)Cc1ccccc1C(=O)NC(C)(C)C` [Example 13C, [2R-(2R*, 3S*, 6R*)]-N-t-Butyl-2-[2-hydroxy-3-phenylmethyl-4-aza-5-oxo-6-N(ethanoyl)amino-7-benzyloxy]heptyl benzamide], the figure is 230 nM; as for `CC(C)(C)NC(=O)c1ccccc1C[C@@H](O)[C@H](Cc1ccccc1)NC(=O)[C@@H](CSCc1ccccc1)NS(C)(=O)=O` [Example 19C, [2R-(2R*,3S*,6S*)]-N-t-Butyl-2-[2-hydroxy-3-phenylmethylyl-4-aza-5-oxo-6-N(methylsulfonyl)amino-7-benzylthio]heptyl benzamide], 3.6 nM; as for `CC(=O)N[C@H](CS(=O)(=O)Cc1ccccc1)C(=O)N[C@@H](Cc1ccccc1)[C@H](O)Cc1ccccc1C(=O)NC(C)(C)C` [Example 18B, [2R-(2R*, 3S*, 6S*)]-N-t-Butyl-2-[2-hydroxy-3-phenylmethyl-4-aza-5-oxo-6-N(ethanoyl)amino-7-benzylsulfonyl]heptyl benzamide], 55.9 nM. On to `CC(=O)N[C@H](CS(=O)(=O)c1ccc2ccccc2n1)C(=O)N[C@@H](Cc1ccccc1)[C@H](O)Cc1ccccc1C(=O)NC(C)(C)C` [Example 24C, [2R-(2R*,3S*,6S*)]-N-t-Butyl-2-[2-hydroxy-3-phenylmethyl-4-aza-5-oxo-6-N(ethanoyl)amino-7-quinolin-2-ylsulfonyl]heptyl benzamide], for which the IC50 is 0.248 nM. On the same count and under the same terms, to `CC(C)(C)NC(=O)c1ccccc1C[C@@H](O)[C@H](Cc1ccccc1)NC(=O)[C@@H](CC(=O)OCc1ccccc1)NC(N)=O` [Example 12, [2R-(2R*, 3S*, 6R*)]-N-t-butyl-2-[2-hydroxy-3-phenylmethyl-4-aza-5-oxo-6-N(carbamoyl)amino-7-benzyloxycarbonyl]heptyl benzamide] belongs 28.9 nM; to `CC(=O)N[C@H](CC(=O)NCc1ccccn1)C(=O)N[C@@H](Cc1ccccc1)[C@H](O)Cc1ccccc1C(=O)NC(C)(C)C` [Example 2, [2R-(2R*, 3S*, 6R*)]-N-t-Butyl-2-[2-hydroxy-3-phenylmethyl-4-aza-5-oxo-6-N(ethanoyl)amino-8-oxo-9-aza-10-pyrid-2-yl]decyl benzamide], 451 nM.

With `CC(=O)N[C@H](CSCc1ccccc1)C(=O)N[C@@H](Cc1ccccc1)[C@H](O)Cc1ccccc1C(=O)NC(C)(C)C` [Example 18A, [2R-(2R*, 3S*, 6S*)]-N-t-Butyl-2-[2-hydroxy-3-phenylmethyl-4-aza-5-oxo-6-N (ethanoyl)amino-7-benzylthio]heptyl benzamide], the concentration for half-maximal inhibition (IC50) was 12.9 nM.

Regarding `CC(C)(C)NC(=O)c1ccccc1C[C@@H](O)[C@H](Cc1ccccc1)NC(=O)[C@H](CC(N)=O)NS(=O)(=O)c1cccc2cccnc12` [Example 30, [2R-(2R*,3S*,6S*)]-N-t-Butyl-2-[2-hydroxy-3-phenylmethyl-4-aza-5-oxo-6-N(quinolin-8-ylsulfonyl)amino-7-carbamoyl]heptyl benzamide], the 50% inhibitory concentration (IC50) was 18.6 nM. Same read-out and setting: as for `CC(C)(C)NC(=O)c1ccccc1C[C@@H](O)[C@H](Cc1ccccc1)NC(=O)[C@@H](CSc1ccccc1)NS(C)(=O)=O` [Example 22C, [2R-(2R*,3S*,6S*)]-N-t-Butyl-2-[2-hydroxy-3-phenylmethyl-4-aza-5-oxo-6-N(methylsulfonyl)amino-7-phenylthio]heptyl benzamide], the figure is 18.9 nM.

(Values after patent US5554653A, “Inhibitors of HIV protease useful for the treatment of AIDS” (Eli Lilly and Company, priority 1992, dated 1996).)
